Data as given in patent US20100285139A1, “PHARMACEUTICAL COMPOSITION FOR THE PROPHYLAXIS AND/OR SYMPTOMATIC TREATMENT OF CYSTIC FIBROSIS” (CYCNAD GMBH & CO., KG, priority 2007, published 2010).

Target: T1, acid sphingomyelinase (Mus musculus, UniProt Q04519)
T1 construct: from tissue; host or cells: lung homogenate of wild-type and Cftr-deficient mice
T1 sequence (Q04519 45-627): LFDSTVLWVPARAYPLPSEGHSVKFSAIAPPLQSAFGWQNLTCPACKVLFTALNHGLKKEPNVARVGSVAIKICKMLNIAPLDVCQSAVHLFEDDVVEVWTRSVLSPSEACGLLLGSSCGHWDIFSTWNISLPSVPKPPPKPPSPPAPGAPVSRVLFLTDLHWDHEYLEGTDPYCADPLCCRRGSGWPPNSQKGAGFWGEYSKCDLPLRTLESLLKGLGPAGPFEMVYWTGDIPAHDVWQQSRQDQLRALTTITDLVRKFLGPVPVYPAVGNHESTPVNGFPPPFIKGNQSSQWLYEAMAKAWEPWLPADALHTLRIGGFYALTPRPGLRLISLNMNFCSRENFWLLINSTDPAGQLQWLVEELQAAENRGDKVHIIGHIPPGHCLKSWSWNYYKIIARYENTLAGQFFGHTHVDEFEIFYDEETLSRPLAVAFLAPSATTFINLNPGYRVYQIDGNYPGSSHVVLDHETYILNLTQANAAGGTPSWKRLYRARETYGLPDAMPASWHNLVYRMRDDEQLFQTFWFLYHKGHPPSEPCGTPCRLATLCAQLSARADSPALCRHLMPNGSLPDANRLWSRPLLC
Experiment: Activity of acid sphingomyelinase in lung extracts of treated mice
Type: in vivo
Method: The inhalation was carried out with the aid of an inhaler (Pariboy® SX). The liquid reservoir in this inhaler was connected to an air nozzle, whereby it was possible to produce a fine aerosol which was inhaled through a mask by the mice. For this, the noses of the experimental animals were pressed manually into the opening of the mask for 10 minutes. This permitted excellent control of the inhalation process. All mice were subjected to an inhalation process 3 times at an interval of 12 hours. The lungs were shock-frozen, homogenized under liquid nitrogen and subsequently transferred to a buffer of 250 mM sodium acetate (pH 5.0), 1.3 mM EDTA and 1% NP40. The homogenizate was then subjected to ultrasound treatment (ultrasonic processor tip sonicator) a total of three times. Subsequently, an aliquot of the samples was diluted with 250 mM sodium acetate (pH 5.0), 1.3 mM EDTA 0.1% NP40 and incubated with 0.05 μCi of [^14C]sphingomyelin per sample (52 mCi/mmol; […] The radioactive sample of [^14C]sphingomyelin was dried, resuspended in 250 mM sodium acetate (pH 5.0), 1.3 mM EDTA and 0.1% NP40 and subsequently subjected to ultrasound treatment for 10 minutes, before it was added to the homogenized samples. The samples were incubated for 30 minutes in total at about 37° C. Subsequently, the enzymatic reaction was ended by extraction (extraction with a solvent mixture of chloroform and methanol in the volume ratio chloroform/methanol 2:1). The samples were then centrifuged and an aliquot of the aqueous phase was in each case subjected to scintillation counting to determine the release of [^14C]phosphorylcholine from [^14C] sphingomyelin. Wild-type mice and Cftr-deficient mice (Cftr-knockout mice) inhaled a solution of 4 mg/l of amitriptyline, 12.5 mg/l of trimipramine, 9 mg/l of desipramine, 8 mg/l of chlorprothixene, 4.5 mg/l of fluoxetine, 5 mg/l of amlodipine and 35 mg/l of sertraline. All substances were dissolved in water or DMSO for this and subsequently diluted at least 1:100 (for DMSO: at least 1:1000) in 0.9% sodium chloride solution. The mice inhaled the solutions for 10 minutes. An inhaler (Pariboy®) was used for the inhalation. In the course of the inhalation time, approximately 2 ml of the solutions administered were atomized. The inhalation was carried out a total of three times at intervals of 12 hours. The lungs were removed 60 minutes after the last inhalation, and the activity of the acid sphingomyelinase was determined in the lung extracts. Wild-type mice and Cftr-deficient mice were in each case inhaled 1 ml of an amitriptyline solution (4 mg/l of H2O) for 20 minutes with the aid of a customary pharmacy inhalation device. The amount of amitriptyline actually administered was therefore about 4 μg. In parallel to this, other wild-type mice and Cftr-deficient mice were in each case administered 100 μl of an amitriptyline solution (2.5 g/l of H2O), so that the amount of amitriptyline actually administered in these animals was 250 μg. The injections were administered twice daily over 2 days. In the case of the inhalative treatment, the lungs of the mice were extracted 60 minutes or 12 hours after ending the inhalation, where in the case of the 12-hour experiments the inhalation was repeated after 6 hours. In the case of the mice treated by an injection solution, their lungs were removed 12 hours after the last injection.

CN(C)CCC=C1c2ccccc2CCc2ccccc21 [amitriptyline]
enzyme activity of acid sphingomyelinase in lung extracts (Cftr-deficient mice, 12 h after intraperitoneal injection of 250 micrograms, twice daily over 2 days): 151±17 pmol/min/mg of protein | enzyme activity of acid sphingomyelinase in lung extracts (Cftr-deficient mice, lungs extracted 60 min after inhalation of 1 ml amitriptyline solution (4 mg/l)): 148±17 pmol/min/mg of protein | enzyme activity of acid sphingomyelinase in lung extracts (Cftr-deficient mice, lungs extracted 12 h after inhalation of 1 ml amitriptyline solution (4 mg/l)): 167±9 pmol/min/mg of protein | enzyme activity of acid sphingomyelinase in lung extracts (wild-type mice, 12 h after intraperitoneal injection of 250 micrograms, twice daily over 2 days): 168±19 pmol/min/mg of protein | enzyme activity of acid sphingomyelinase in lung extracts (wild-type mice, lungs extracted 60 min after inhalation of 1 ml amitriptyline solution (4 mg/l)): 176±18 pmol/min/mg of protein | enzyme activity of acid sphingomyelinase in lung extracts (wild-type mice, lungs extracted 12 h after inhalation of 1 ml amitriptyline solution (4 mg/l)): 200±14 pmol/min/mg of protein
